Our source for the IC50 and inhibition values is patent publication US20120004228A1, “Bis Aromatic Compounds for Use as LTC4 Synthase Inhibitors” (BIOLIPOX AB, priority 2009, published 2012).

One assay concerns the target T1, Recombinant human LTC4 synthase (Homo sapiens, UniProt Q16873).
T1 construct: made in house; host or cells: Pichia pastoris ('Piccia pastoralis' [sic])
T1 sequence (Q16873 1-150): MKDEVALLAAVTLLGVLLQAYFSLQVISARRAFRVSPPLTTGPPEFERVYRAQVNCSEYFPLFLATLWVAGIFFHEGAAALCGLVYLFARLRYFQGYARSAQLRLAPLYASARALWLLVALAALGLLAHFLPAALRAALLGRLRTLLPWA
In words: In vitro LTC4 synthase assay (LTA4 to LTC4, HTRF detection). Type of assay: biochemical.
Settings: not given
As for the experimental part: In the assay, LTC4 synthase catalyses the reaction where the substrate LTA4 is converted to LTC4. Recombinant human LTC4 synthase is expressed in Piccia pastoralis and the purified enzyme is dissolved in 25 mM tris-buffer pH 7.8 supplemented with 0.1 mM glutathione (GSH) and stored at −80° C. The assay is performed in phosphate buffered saline (PBS) pH 7.4 and 5 mM GSH in 384-well plates.
The following is added chronologically to each well:
1. 48 μL LTC4 synthase in PBS with 5 mM GSH. The total protein concentration in this solution is 0.5 μg/mL. 2. 1 μL inhibitor in DMSO (final concentration 10 μM). 3. Incubation of the plate at room temperature for 10 min. 4. 1 μL LTA4 (final concentration 2.5 μM). 5. Incubation of the plate at room temperature for 5 min. 6. 10 μL of the incubation mixture is analysed using homogenous time resolved fluorescent (HTRF) detection.
Background: TR-FRET usually uses a lanthanide donor and a delayed reading to cut background.
The term IC50 denotes the midpoint of a concentration-inhibition curve. In the case of `CN(c1ccc(Cl)cc1)c1ccc(C(=O)c2cc(C(=O)O)cc(C(=O)Nc3ccccc3Cl)c2)nc1` [2:2, 3-{5-[(4-Chlorophenyl)(methyl)amino]picolinoyl}-5-(2-chlorophenyl-carbamoyl)-benzoic acid], the IC50 was 538 nM.

For the molecule `C#CCN(c1ccccc1)c1cc(C(=O)O)cc(C(=O)c2ccc(N(C)c3ccc(Cl)cc3)cn2)c1` [9:8, 3-{5-[(4-Chlorophenyl)(methyl)amino]picolinoyl}-5-[phenyl(prop-2-ynyl)amino]-benzoic acid], the IC50 worked out at 43 nM.

For the molecule `CN(c1ccc(Cl)cc1)c1ccc(C(=O)c2cc(C(=O)O)cc(-c3cccc(Cl)c3)c2)nc1` [Example 12:1, 3′-Chloro-5-{5-[(4-chlorophenyl)(methyl)amino]picolinoyl}biphenyl-3-carboxylic acid], the half-maximal inhibitory concentration (IC50) was determined as 184 nM.

Turning to `CN(c1ccc(Cl)cc1)c1ccc(C(=O)c2ccc(NC(=O)c3cccc(Cl)c3)cc2)c(C(=O)O)c1` [Example 4:2, 2-[4-(3-Chlorobenzamido)benzoyl]-5-[(4-chlorophenyl)(methyl)amino)-benzoic acid], the half-inhibitory concentration (IC50) came to 703 nM.

Turning to `CN(c1ccc(Cl)cc1)c1ccc(C(=O)c2cc(C(=O)O)cc(C(=O)c3ccccc3)c2)nc1` [Example 14, 3-Benzoyl-5-{5-[(4-chlorophenyl)(methyl)amino]picolinoyl}benzoic acid], the IC50 came to 146 nM.

Consider `CN(c1ccc(Cl)cc1)c1ccc(C(=O)c2cc(Nc3ccc(Cl)cc3)cc(C(=O)O)c2)nc1` [9:4, 3-{5-[(4-Chlorophenyl)(methyl)amino]picolinoyl}-5-(4-chlorophenylamino)-benzoic acid], for which the IC50 was 70 nM.

With `CN(c1ccc(Cl)cc1)c1ccc(C(=O)c2cc(OCc3ccc4c(c3)OCO4)cc(C(=O)O)c2)nc1` [11:5, 3-{5-[(4-Chlorophenyl)(methyl)amino]picolinoyl}-5-(3,4-methylenedioxy-benzyloxy)benzoic acid], the IC50 worked out at 584 nM.

`CN(c1ccc(Cl)cc1)c1ccc(C(=O)c2cc(OCc3cccc(F)c3)cc(C(=O)O)c2)nc1` [11:4, 3-{5-[(4-Chlorophenyl)(methyl)amino]picolinoyl}-5-(3-fluorobenzyloxy)benzoic acid]: the IC50 was found to be 454 nM.

For `COc1cccc(Oc2cc(C(=O)O)cc(C(=O)c3ccc(N(C)c4ccc(Cl)cc4)cn3)c2)c1` [8:3, 3-{5-[(4-Chlorophenyl)(methyl)amino]picolinoyl}-5-(3-methoxyphenoxy)benzoic acid], the IC50 is 188 nM.

As for `CN(c1ccc(Cl)cc1)c1ccc(C(=O)c2cc(C(=O)O)cc(N(C)c3ccc(Cl)cc3)c2)nc1` [9:3, 3-[(4-Chlorophenyl)(methyl)amino]-5-{5-[(4-chlorophenyl)(methyl)amino]-picolinoyl}benzoic acid], the 50% inhibitory concentration (IC50) is 45 nM.

Take `CN(c1ccc(Cl)cc1)c1ccc(C(=O)c2cc(C(=O)O)cc(N(C(=O)CC(C)(C)C)c3ccccc3)c2)nc1` [9:18, 3-{5-[(4-Chlorophenyl)(methyl)amino]picolinoyl}-5-(3,3-dimethyl-N-phenyl-butylamido)benzoic acid]: the IC50 came to 160 nM.

As for `CN(c1ccc(Cl)cc1)c1ccc(C(=O)c2cc(C(=O)O)cc(N(CC3CCCO3)c3ccccc3)c2)nc1` (centres unmarked) [9:41, 3-{5-[(4-Chlorophenyl)(methyl)amino]picolinoyl}-5-{phenyl[(2-tetrahydrofuryl)-methyl]amino}benzoic acid], the IC50 worked out at 164 nM.

Consider `COc1ccccc1N(C)c1cc(C(=O)O)cc(C(=O)c2ccc(N(C)c3ccc(Cl)cc3)cn2)c1` [9:22, 3-{5-[(4-Chlorophenyl)(methyl)amino]picolinoyl}-5-[(2-methoxyphenyl)(methyl)-amino]benzoic acid], for which the IC50 turned out to be 366 nM.

For the molecule `CN(c1ccc(Cl)cc1)c1ccc(C(=O)c2cc(C(=O)O)cc(N(C)c3ccc4c(c3)OCO4)c2)nc1` [9:30, 3-{5-[(4-Chlorophenyl)(methyl)amino]picolinoyl}-5-[(3,4-methylenedioxy-phenyl)(methyl)amino]benzoic acid], the IC50 came to 197 nM.

Regarding `CCN(c1ccccc1)c1cc(C(=O)O)cc(C(=O)c2ccc(N(C)c3ccc(Cl)cc3)cc2)c1` [10:19, 3-{4-[(4-Chlorophenyl)(methyl)amino]benzoyl}-5-[ethyl(phenyl)amino]benzoic acid], the IC50 worked out at 33 nM.

For the molecule `COc1ccc(CN(C)c2cc(C(=O)O)cc(C(=O)c3ccc(N(C)c4ccc(Cl)cc4)cn3)c2)cc1` [9:9, 3-{5-[(4-Chlorophenyl)(methyl)amino]picolinoyl}-5-[(4-methoxybenzyl)(methyl)-amino]benzoic acid], the IC50 came out at 123 nM.

On to `CN(c1ccc(Cl)cc1)c1ccc(C(=O)c2cc(C(=O)O)cc(N(C)c3ccc4c(c3)OCCO4)c2)nc1` [9:34, 3-{5-[(4-Chlorophenyl)(methyl)amino]picolinoyl}-5-[(3,4-ethylenedioxy-phenyl)(methyl)amino]benzoic acid], for which the IC50 came out at 216 nM.

Consider `CN(c1ccc(Cl)cc1)c1ccc(C(=O)c2cc(Oc3ccc(Cl)cc3)cc(C(=O)O)c2)nc1` [8:5, 3-(4-Chlorophenoxy)-5-{5-[(4-chlorophenyl)(methyl)amino]picolinoyl}benzoic acid], for which the IC50 is 76 nM.

Take `CN(c1ccc(Cl)cc1)c1ccc(C(=O)c2cc(Nc3cccc(Cl)c3)cc(C(=O)O)c2)nc1` [Example 9:2, 3-{5-[(4-Chlorophenyl)(methyl)amino]picolinoyl}-5-(3-chlorophenylamino)-benzoic acid]: the IC50 stood at 248 nM.

Regarding `CCCCCCNC(=O)c1cc(C(=O)O)cc(C(=O)c2ccc(N(C)c3ccc(Cl)cc3)cn2)c1` [2:5, 3-{5-[(4-Chlorophenyl)(methyl)amino]picolinoyl}-5-(hexylcarbamoyl)benzoic acid], the IC50 was 102 nM.

As to `CN(c1ccc(Cl)cc1)c1ccc(C(=O)c2cc(Oc3cccc(Cl)c3)cc(C(=O)O)c2)cc1` [8:20, 3-(3-Chlorophenoxy)-5-{4-[(4-chlorophenyl)(methyl)amino]benzoyl}benzoic acid], the concentration for half-maximal inhibition (IC50) worked out at 87 nM.

With `CN(c1ccc(Cl)cc1)c1ccc(C(=O)c2cc(OCc3ccccc3)cc(C(=O)O)c2)nc1` [11:2, 3-Benzyloxy-5-{5-[(4-chlorophenyl)(methyl)amino]picolinoyl}benzoic acid], the IC50 worked out at 462 nM.

With `CCCCCCC(=O)Nc1ccc(C(=O)c2ccc(Nc3ccc(Cl)cc3)cc2C(=O)O)cc1` [Example 4:1, 5-(4-Chlorophenylamino)-2-(4-heptylamidobenzoyl)benzoic acid], the half-maximal inhibitory concentration (IC50) came out at 646 nM.

For the molecule `COc1cccc(Oc2cc(C(=O)O)cc(C(=O)c3ccc(N(C)c4ccc(Cl)cc4)cc3)c2)c1` [8:14, 3-{4-[(4-Chlorophenyl)(methyl)amino]benzoyl}-5-(3-methoxyphenoxy)benzoic acid], the IC50 is 143 nM.

For the molecule `CN(c1ccc(Cl)cc1)c1ccc(C(=O)c2cc(C(=O)O)cc(N(CC3(C)COC3)c3ccccc3)c2)nc1` [9:15, 3-{5-[(4-Chlorophenyl)(methyl)amino]picolinoyl}-5-{[(3-methyloxetan-3-yl)-methyl](phenyl)amino}benzoic acid], the IC50 came out at 50 nM.

As to `CN(c1ccc(Cl)cc1)c1ccc(C(=O)c2cc(C(=O)O)cc(N(CC3(C)COC3)c3ccccc3F)c2)cc1` [10:28, 3-{4-[(4-Chlorophenyl)(methyl)amino]benzoyl}-5-{(2-fluorophenyl)[(3-methyl-oxetan-3-yl)methyl]amino}benzoic acid], the IC50 worked out at 68 nM.

As for `CN(c1ccc(Cl)cc1)c1ccc(C(=O)c2cc(NC(=O)c3ccccc3)cc(C(=O)O)c2)nc1` [2:8, 3-Benzamido-5-{5-[(4-chlorophenyl)(methyl)amino]picolinoyl}benzoic acid], the half-inhibitory concentration (IC50) was 214 nM.

For the molecule `CCN(CC)c1ccc(Oc2cc(C(=O)O)cc(C(=O)c3ccc(N(C)c4ccc(Cl)cc4)cc3)c2)cc1` [8:15, 3-{4-[(4-Chlorophenyl)(methyl)amino]benzoyl}-5-(4-(diethylamino)phenoxy)-benzoic acid], the IC50 was 183 nM.

On to `CN(c1ccc(Cl)cc1)c1ccc(C(=O)c2cc(C(=O)O)cc(N(CCCCO)c3ccccc3)c2)nc1` [9:45, 3-{5-[(4-Chlorophenyl)(methyl)amino]picolinoyl}-5-[(4-hydroxybutyl)(phenyl)-amino]benzoic acid], for which the IC50 came out at 25 nM.

Regarding `Cc1ccccc1Oc1cc(C(=O)O)cc(C(=O)c2ccc(N(C)c3ccc(Cl)cc3)cc2)c1` [8:17, 3-{4-[(4-Chlorophenyl)(methyl)amino]benzoyl}-5-(o-tolyloxy)benzoic acid], the IC50 is 198 nM.

As for `CN(c1ccc(Cl)cc1)c1ccc(C(=O)c2cc(C(=O)O)cc(N(CCC3OCCO3)c3ccccc3)c2)nc1` [9:46, 3-{[2-(1,3-Dioxolan-2-yl)ethyl](phenyl)amino}-5-{5-[(4-chlorophenyl)(methyl)-amino]picolinoyl}benzoic acid], the IC50 came out at 122 nM.

Regarding `CN(c1ccc(Cl)cc1)c1ccc(C(=O)c2cc(C(=O)O)cc(N(CC3OCCO3)c3ccccc3)c2)cc1` [10:29, 3-{[(1,3-Dioxolan-2-yl)methyl](phenyl)amino}-5-{4-[(4-chlorophenyl)(methyl)-amino]benzoyl}benzoic acid], the IC50 is 40 nM.

As for `CC(=O)N(c1cc(C(=O)O)cc(C(=O)c2ccc(N(C)c3ccc(Cl)cc3)cn2)c1)C1CCCCC1` [9:43, 3-{5-[(4-Chlorophenyl)(methyl)amino]picolinoyl}-5-(N-cyclohexylacetamido)-benzoic acid], the IC50 was determined as 1820 nM.

The same assay, now with this note: 5 min; total concentration of title compound in the assay 10 μM.
One may read the inhibition as how much of the control response was suppressed. On to `CN(c1ccc(Cl)cc1)c1ccc(C(=O)c2ccc(NC(=O)c3cccc(Cl)c3)cc2)c(C(=O)O)c1` [Example 4:2, 2-[4-(3-Chlorobenzamido)benzoyl]-5-[(4-chlorophenyl)(methyl)amino)-benzoic acid], for which the inhibition at 10 µM was found to be 100%.

Consider `CCCCCCC(=O)Nc1ccc(C(=O)c2ccc(Nc3ccc(Cl)cc3)cc2C(=O)O)cc1` [Example 4:1, 5-(4-Chlorophenylamino)-2-(4-heptylamidobenzoyl)benzoic acid], for which the inhibition at 10 µM came out at 98%.
